In patent US20260176320A1, “MODULATORS OF G-PROTEIN COUPLED RECEPTORS” (priority 2018, published 2026):
Where two headings read alike, the source gives them in different places.

Assays:
Format in all cases: cell-based
GLP-1R [1] = molecular target: T1, GLP-1R (Homo sapiens, UniProt P43220); assay: HitHunter cAMP assay (GLP-1R); details: cAMP; for Emax: read-out: (Emax) GLP-1R
How it was run: (§1)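 cAMP, luminescence read: agonist 22-pt 2× dilution in DMSO, duplicate, 30 min RT on 10,000 cells/well in 1×HBSS/10 mM HEPES/625 μM IBMX/0.2% BSA; anti-cAMP reagent 1 h RT dark, then O/N RT dark before read.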

GIP-R = molecular target: T2, GIP-R (Homo sapiens, UniProt P48546); assay: HitHunter cAMP assay (GIP-R); details: cAMP; for Emax: read-out: (Emax) GIP-R
T2 sequence (P48546 22-466): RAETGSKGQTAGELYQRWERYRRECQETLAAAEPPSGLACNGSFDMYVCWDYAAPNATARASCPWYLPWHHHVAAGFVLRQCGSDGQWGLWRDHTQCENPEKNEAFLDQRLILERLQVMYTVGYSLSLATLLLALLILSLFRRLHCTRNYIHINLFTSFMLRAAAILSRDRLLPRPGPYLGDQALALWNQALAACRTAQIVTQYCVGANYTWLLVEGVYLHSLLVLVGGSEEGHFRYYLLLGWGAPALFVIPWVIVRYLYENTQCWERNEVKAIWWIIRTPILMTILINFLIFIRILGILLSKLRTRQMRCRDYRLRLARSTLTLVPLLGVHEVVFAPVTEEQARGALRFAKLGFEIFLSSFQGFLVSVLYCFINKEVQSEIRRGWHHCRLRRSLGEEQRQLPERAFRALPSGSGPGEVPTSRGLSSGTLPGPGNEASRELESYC
How it was run: as §1

GLP-1R [2] = molecular target: T1, GLP-1R; assay: PathHunter β-arrestin assay
Description: The effects of the chemical entities described herein on β-arrestin signaling and associated downstream processes (e.g., those delineated above) can be assessed using conventional methods, e.g., PathHunter β-arrestin Assay for determining β-arresting coupling (see Examples section). […] It has been shown that b-arrestin coupling is a key strep in receptor internalization and subsequent de-sensitization and attenuation of signaling.
5,000 cells were seeded in appropriate cell culture media per well in a low volume 384-well tissue culture plate. The assay plate was incubated with cells overnight at 37° C. and 5% CO2. The media was removed, and 5 μL of appropriate cell culture media containing 0.2% BSA was added. Agonist serial dilutions in a separate 384 well dilution plate in a 22-point series of 2× dilutions of agonist in DMSO were performed as follows. 80 μL of the highest concentration of Agonist/DMSO was added to well No. 1. 40 μL was removed from well No. 1, and added to well No. 2, followed by gentle mixing. […] This process was repeated until well No. 22. Additional serial dilutions for additional agonists were set up in a similar manner. 100 nL of each 2× agonist serial dilution was added in duplicate to the designated agonist rows of the assay plate using the Labcyte ECHO. Assay plate was incubated for 90 minutes at 37° C. and 5% CO2. A stock of Working Detection Solution in a separate 15 ml polypropylene tube was prepared by mixing 19 parts of Cell Assay Buffer, 5 parts of Substrate Reagent 1, 1 part Substrate Reagent 2. […] Plates were spun down briefly. Assay plate was incubated for 3 hour at room temperature in the dark for the immunocompetition reaction to occur. Samples were read on Tecan i-control plate reader using luminescence mode with 100 ms integration time. Data analysis was performed using GraphPad Prism.

[3] = Table 3, read-out: EC50 GLP-1R/nM
[4] = Table 3A, read-out: EC50 GLP-1R/nM
[5] = Table 3, read-out: EC50 GIP-R/nM
[6] = Table 3A, read-out: EC50 GIP-R/nM
[7] = PathHunter β-arrestin assay, read-out: β-arrestin activity EC50

T1 sequence (P43220 24-463): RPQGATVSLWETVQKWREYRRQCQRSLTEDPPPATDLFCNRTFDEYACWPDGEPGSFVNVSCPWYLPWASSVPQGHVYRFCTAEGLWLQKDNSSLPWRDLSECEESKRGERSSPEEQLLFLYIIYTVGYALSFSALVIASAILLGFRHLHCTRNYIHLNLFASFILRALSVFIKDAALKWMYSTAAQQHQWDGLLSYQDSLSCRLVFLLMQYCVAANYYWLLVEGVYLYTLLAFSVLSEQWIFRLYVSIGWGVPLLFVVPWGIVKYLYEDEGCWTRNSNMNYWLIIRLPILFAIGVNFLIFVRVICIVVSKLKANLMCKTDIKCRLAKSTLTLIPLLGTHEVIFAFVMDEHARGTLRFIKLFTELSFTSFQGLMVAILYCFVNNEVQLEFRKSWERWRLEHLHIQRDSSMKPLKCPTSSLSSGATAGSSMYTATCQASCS

Compound	EC50 (GLP-1R [1]; EC50 GLP-1R/nM, Table 3)	EC50 (GLP-1R [1]; EC50 GLP-1R/nM, Table 3A)	Emax (GLP-1R [1]; Table 3)	Emax (GLP-1R [1]; Table 3A)	EC50 (GIP-R; EC50 GIP-R/nM, Table 3)	EC50 (GIP-R; EC50 GIP-R/nM, Table 3A)	Emax (GIP-R; Table 3)	Emax (GIP-R; Table 3A)	EC50 (GLP-1R [2])	EC50 (GLP-1R [1]; [3])	EC50 (GLP-1R [1]; [4])	EC50 (GIP-R; [5])	EC50 (GIP-R; [6])	EC50 (GLP-1R [2]; [7])
CCCCCCCCCCCCCCCC(=O)N[C@@H](CCC(=O)NCCCC[C@H](NC(=O)[C@H](CO)NC(=O)[C@@H]1CCCN1C(=O)[C@@H]1CCCN1C(=O)[C@@H]1CCCN1C(=O)[C@H](C)NC(=O)CNC(=O)[C@H](CO)NC(=O)[C@H](CO)NC(=O)[C@@H]1CCCN1C(=O)CNC(=O)CNC(=O)[C@H](C)NC(=O)[C@H](CC(C)C)NC(=O)[C@H](CC(C)C)NC(=O)[C@H](Cc1c[nH]c2ccccc12)NC(=O)[C@H](CC(N)=O)NC(=O)[C@@H](NC(=O)[C@H](Cc1ccccc1)NC(=O)[C@H](CCC(=O)O)NC(=O)C(C)(C)NC(=O)[C@H](C)NC(=O)[C@H](C)NC(=O)[C@H](CCC(N)=O)NC(=O)[C@H](CCCCN)NC(=O)[C@H](CC(=O)O)NC(=O)[C@H](CC(C)C)NC(=O)[C@H](Cc1ccc(O)cc1)NC(=O)[C@@H](NC(=O)[C@H](CO)NC(=O)[C@H](Cc1ccc(O)cc1)NC(=O)[C@H](CC(=O)O)NC(=O)[C@H](CO)NC(=O)[C@@H](NC(=O)[C@H](Cc1ccccc1)NC(=O)[C@@H](NC(=O)CNC(=O)[C@H](CCC(=O)O)NC(=O)CSCC(=O)NCCN1CC[C@@H](OC)C1=O)[C@@H](C)O)[C@@H](C)O)[C@@H](C)CC)C(C)C)C(N)=O)C(=O)O [Compound 11]	0.1 to 1 nM	0.1 to 1 nM	96%	96%	1 to 10 nM	1 to 10 nM	39%	39%	> 1000 nM	–	–	–	–	–
CCCCCCCCCCCCCCCC(=O)N[C@@H](CCC(=O)NCCCC[C@H](NC(=O)[C@H](CO)NC(=O)[C@@H]1CCCN1C(=O)[C@@H]1CCCN1C(=O)[C@@H]1CCCN1C(=O)[C@H](C)NC(=O)CNC(=O)[C@H](CO)NC(=O)[C@H](CO)NC(=O)[C@@H]1CCCN1C(=O)CNC(=O)CNC(=O)[C@H](C)NC(=O)[C@H](CC(C)C)NC(=O)[C@H](CC(C)C)NC(=O)[C@H](Cc1c[nH]c2ccccc12)NC(=O)[C@H](CC(N)=O)NC(=O)[C@@H](NC(=O)[C@H](Cc1ccccc1)NC(=O)[C@H](CCC(=O)O)NC(=O)C(C)(C)NC(=O)[C@H](C)NC(=O)[C@H](C)NC(=O)[C@H](CCC(N)=O)NC(=O)[C@H](CCCCN)NC(=O)[C@H](CC(=O)O)NC(=O)[C@H](CC(C)C)NC(=O)[C@H](Cc1ccc(O)cc1)NC(=O)[C@@H](NC(=O)[C@H](CO)NC(=O)[C@H](Cc1ccc(O)cc1)NC(=O)[C@H](CC(=O)O)NC(=O)[C@H](CO)NC(=O)[C@@H](NC(=O)[C@H](Cc1ccccc1)NC(=O)[C@@H](NC(=O)CNC(=O)[C@H](CCC(=O)O)NC(=O)CSCC(=O)NCCN1CC(=O)N(C)CC1=O)[C@@H](C)O)[C@@H](C)O)[C@@H](C)CC)C(C)C)C(N)=O)C(=O)O [Compound 12]	–	–	91%	91%	–	–	85%	85%	–	1 to 10 nM	1 to 10 nM	0.1 to 1 nM	0.1 to 1 nM	> 1000 nM
CCCCCCCCCCCCCCCC(=O)N[C@@H](CCC(=O)NCCCC[C@H](NC(=O)[C@H](CO)NC(=O)[C@@H]1CCCN1C(=O)[C@@H]1CCCN1C(=O)[C@@H]1CCCN1C(=O)[C@H](C)NC(=O)CNC(=O)[C@H](CO)NC(=O)[C@H](CO)NC(=O)[C@@H]1CCCN1C(=O)CNC(=O)CNC(=O)[C@H](C)NC(=O)[C@H](CC(C)C)NC(=O)[C@H](CC(C)C)NC(=O)[C@H](Cc1c[nH]c2ccccc12)NC(=O)[C@H](CC(N)=O)NC(=O)[C@@H](NC(=O)[C@H](Cc1ccccc1)NC(=O)[C@H](CCC(=O)O)NC(=O)C(C)(C)NC(=O)[C@H](C)NC(=O)[C@H](C)NC(=O)[C@H](CCC(N)=O)NC(=O)[C@H](CCCCN)NC(=O)[C@H](CC(=O)O)NC(=O)[C@H](CC(C)C)NC(=O)[C@H](Cc1ccc(O)cc1)NC(=O)[C@@H](NC(=O)[C@H](CO)NC(=O)[C@H](Cc1ccc(O)cc1)NC(=O)[C@H](CC(=O)O)NC(=O)[C@H](CO)NC(=O)[C@@H](NC(=O)[C@H](Cc1ccccc1)NC(=O)[C@@H](NC(=O)CNC(=O)[C@H](CCC(=O)O)NC(=O)CSCC(=O)NCCN1CCc2ccccc2C1=O)[C@@H](C)O)[C@@H](C)O)[C@@H](C)CC)C(C)C)C(N)=O)C(=O)O [Compound 13]	1 to 10 nM	1 to 10 nM	69%	69%	1 to 10 nM	10 to 100 nM	25%	25%	> 1000 nM	–	–	–	–	–
CCCCCCCCCCCCCCCC(=O)N[C@@H](CCC(=O)NCCCC[C@H](NC(=O)[C@H](CO)NC(=O)[C@@H]1CCCN1C(=O)[C@@H]1CCCN1C(=O)[C@@H]1CCCN1C(=O)[C@H](C)NC(=O)CNC(=O)[C@H](CO)NC(=O)[C@H](CO)NC(=O)[C@@H]1CCCN1C(=O)CNC(=O)CNC(=O)[C@H](C)NC(=O)[C@H](CC(C)C)NC(=O)[C@H](CC(C)C)NC(=O)[C@H](Cc1c[nH]c2ccccc12)NC(=O)[C@H](CC(N)=O)NC(=O)[C@@H](NC(=O)[C@H](Cc1ccccc1)NC(=O)[C@H](CCC(=O)O)NC(=O)C(C)(C)NC(=O)[C@H](C)NC(=O)[C@H](C)NC(=O)[C@H](CCC(N)=O)NC(=O)[C@H](CCCCN)NC(=O)[C@H](CC(=O)O)NC(=O)[C@H](CC(C)C)NC(=O)[C@H](Cc1ccc(O)cc1)NC(=O)[C@@H](NC(=O)[C@H](CO)NC(=O)[C@H](Cc1ccc(O)cc1)NC(=O)[C@H](CC(=O)O)NC(=O)[C@H](CO)NC(=O)[C@@H](NC(=O)[C@H](Cc1ccccc1)NC(=O)[C@@H](NC(=O)CNC(=O)[C@H](CCC(=O)O)NC(=O)CSCC(=O)NCCN1CC[C@H](OC)C1=O)[C@@H](C)O)[C@@H](C)O)[C@@H](C)CC)C(C)C)C(N)=O)C(=O)O [Compound 14]	0.1 to 1 nM	0.1 to 1 nM	81%	81%	10 to 100 nM	–	< 10%	–	> 1000 nM	–	–	–	–	–
CCCCCCCCCCCCCCCC(=O)N[C@@H](CCC(=O)NCCCC[C@H](NC(=O)[C@H](CO)NC(=O)[C@@H]1CCCN1C(=O)[C@@H]1CCCN1C(=O)[C@@H]1CCCN1C(=O)[C@H](C)NC(=O)CNC(=O)[C@H](CO)NC(=O)[C@H](CO)NC(=O)[C@@H]1CCCN1C(=O)CNC(=O)CNC(=O)[C@H](C)NC(=O)[C@H](CC(C)C)NC(=O)[C@H](CC(C)C)NC(=O)[C@H](Cc1c[nH]c2ccccc12)NC(=O)[C@H](CC(N)=O)NC(=O)[C@@H](NC(=O)[C@H](Cc1ccccc1)NC(=O)[C@H](CCC(=O)O)NC(=O)C(C)(C)NC(=O)[C@H](C)NC(=O)[C@H](C)NC(=O)[C@H](CCC(N)=O)NC(=O)[C@H](CCCCN)NC(=O)[C@H](CC(=O)O)NC(=O)[C@H](CC(C)C)NC(=O)[C@H](Cc1ccc(O)cc1)NC(=O)[C@@H](NC(=O)[C@H](CO)NC(=O)[C@H](Cc1ccc(O)cc1)NC(=O)[C@H](CC(=O)O)NC(=O)[C@H](CO)NC(=O)[C@@H](NC(=O)[C@H](Cc1ccccc1)NC(=O)[C@@H](NC(=O)CNC(=O)[C@H](CCC(=O)O)NC(=O)CCCNC(=O)CCN1CCCCC1=O)[C@@H](C)O)[C@@H](C)O)[C@@H](C)CC)C(C)C)C(N)=O)C(=O)O [Compound 15]	–	–	93%	93%	–	–	20%	20%	–	0.1 to 1 nM	0.1 to 1 nM	1 to 10 nM	10 to 100 nM	> 1000 nM
